Target: T1, ribose binding protein (RBP) (Caldanaerobacter subterraneus, UniProt Q8RD41)
T1 construct: gene RbsB; RF125: RBP with human FKBP12 (V24A and C22A) inserted at position 125, without the NFM and CFM mutations
Assay: isothermal titration calorimetry

T1 sequence (Q8RD41 24-313): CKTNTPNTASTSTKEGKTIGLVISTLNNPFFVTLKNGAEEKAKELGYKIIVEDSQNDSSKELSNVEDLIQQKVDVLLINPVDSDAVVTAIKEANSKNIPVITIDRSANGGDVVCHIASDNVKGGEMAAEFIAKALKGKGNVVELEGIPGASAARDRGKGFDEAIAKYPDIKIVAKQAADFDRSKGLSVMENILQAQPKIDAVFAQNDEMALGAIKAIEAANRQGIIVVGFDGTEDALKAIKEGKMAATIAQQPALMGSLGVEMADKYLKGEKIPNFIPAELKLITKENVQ
T1 sequence (P62942 with tags, fused parts or gaps C23A/V25A partner): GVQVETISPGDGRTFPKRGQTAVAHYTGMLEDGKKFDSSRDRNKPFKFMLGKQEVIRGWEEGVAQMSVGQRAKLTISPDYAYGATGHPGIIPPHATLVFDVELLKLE

O=C[C@H](O)[C@H](O)[C@H](O)CO [ribose]
Kd: 12.8 nM
